Measured values reported in patent US6673625B2, “Saccharide sensing molecules having enhanced fluorescent properties” (The Regents of the University of California, priority 1999, dated 2004).

Legend:
[1] = Rehm-Weller estimate of free energy of photoinduced electron transfer (PET); assay type: physicochemical
Excerpt: The search for new fluorescent glucose transducers based on photoelectron transfer (PET) requires, among other things, an understanding of the electrochemistry of any potential donor-acceptor pair. The free energy of PET (ΔGel) can be calculated using the Rehm-Weller equation shown below:
ΔGel(kcal mol^−1)=23.06[E^0(D^+/D)−E^0(A/A^−)]−wp−wr−ΔG00 where E^0(D^+/D) is the oxidation potential of the donor, E^0(A/A^−) is the reduction potential of the acceptor, and ΔG00 is the free energy corresponding to the equilibrium energy E00 (see e.g. Kavarnos, G. J. In Fundamentals of photoinduced electron transfer, VCH Publishers: New York, N.Y., 1993; p Chapter 1 and Rehm and Weller, Ist. J. Chem. 1970, 8, 259). The quantities wp and wr are Coulombic terms for the products and reactants, and ate found to be small in polar solvents. To simplify predictions, we assume wp and wr to be zero, and estimate E00 as the energy corresponding to [λmax(ex)+λmax(em)]/2 for each fluorophore.
ΔGPET=23.06[E^0(Z^oxidation)−E^0(F^reduction)]−ΔE00],
The electrochemical potentials can be measured using the individual molecular groups before assembling the complete molecule.
Electrochemistry. The search for new fluorescent glucose transducers based on PET requires, among other things, an understanding of the electrochemistry of any potential donor-acceptor pair. The free energy of PET (ΔGel) can be calculated using the Rehm-Weller equation shown in eq 1, where E^0(D^+/D) is the oxidation potential of the […]
ΔGe(kcal mol^−1)=23.06[E^0(D^+/D)−E^0(A/A^−)]−wp−wr−ΔG00 (1) donor, E^0(A/A^−) is the reduction potential of the acceptor, and ΔG00 is the free energy corresponding to the equilibrium energy E00. The quantities wp and wr are Coulombic terms for the products and reactants, and are found to be small in polar solvents. In our case, wr=0 since the reactants are neutral. To simplify predictions, we assume wp to be zero and estimate E00 as the energy corresponding to [λmax(ex)+λmax(em)]/2 for each fluorophore. […]
it is possible to estimate the free energy of photoinduced electron transfer (PET) in these systems (see e.g. Kavamos, G. J. Fundamentals of Photoinduced Electron Transfer, VCH: New York, 1993; pp 37-40). E0(D^+/D) and E^0(A/A^−) correspond to the […] of the electron donor (i.e. amine) and electron acceptor (i.e. fluorophore), respectively. The quantity ΔG00, is the equilibrium energy, which we estimate as the energy corresponding to the equilibrium wavelength λ00. As an estimate of λ00, we use the average of the excitation and emission maxima for each fluorophore. Smaller solvent-dependent work terms for the Coulombic interaction between the reactants and products are left out for simplicity. Since the mechanism of fluorescence switching in these systems depends on PET, this gives us a rough estimate of which fluorophores should give the best response to glucose.

[2] = Cyclic voltammetry (glassy carbon, Ag/AgCl reference, 0.1 M NBu4ClO4 in acetonitrile); assay type: physicochemical
Procedure: Samples for FT IR spectroscopy were prepared as solutions in CHCl3, and only the C═O stretches are reported. Unless otherwise stated, all NMR spectra were recorded at 500 MHz for ^1H and 125 MHz for ^13C at 20-25° C. using CDCl3 as the solvent. Unless stated otherwise, mass spectra were obtained using electrospray ionization (50 V) with a 50/50 methanol/water solvent mixture with ^1% acetic acid added. Cyclic voltammetry was conducted using a glassy carbon working electrode, platinum counter electrode, and Ag/AgCl reference electrode and carried out in a 0.1 M solution of NBu4ClO4 in acetonitrile.
Summarized Syntheses. As the syntheses are described as a series of analogous compounds with general procedures are given below. Cyclic voltammetry was conducted using a glassy carbon working electrode, platinum counter electrode, and Ag/AgCl reference electrode and carried out in a 0.1 M solution of NBu4ClO4 in acetonitrile. Samples for fluorescence were prepared as 1.00 mM stock solutions in MeOH. A 30.0 μL aliquot of solution was then added to 3.000 mL of the appropriate solvent mixture (a combination of methanol and phosphate buffered saline—PBS). Relative quantum yields were determined by the relative output of equimolar solutions of two compounds using 3ay as a reference. Glucose additions were performed by the addition of a concentrated solution of glucose in PBS to a stirred solution of the fluorescent molecule in methanol/PBS.
General. All reactions were performed under an atmosphere of N2, followed by work-up in air. Protected boronate esters were stored under vacuum to prevent slow hydrolysis from atmospheric moisture. Unless stated otherwise, all chemicals were purchased from commercial suppliers. Anhydrous solvents from Aldrich were used for all reactions. Starting compounds known in the art such as N-n-butyl-4-chloronaphthalene-1,8-dicarboximide(1ax), 2,2-dimethylpropane-1,3-diyl[o-(bromomethyl) phenyl]boronate, were prepared by literature methods (see e.g. Daffy et al. Chem-Eur J 1998, 4, 1810-1815; de Silva et al., Chem Rev 1997, 97, 1515-1566). Samples for FT IR spectroscopy were prepared as solutions in CHCl3, and only the C═O stretches are reported here. All mass spectra were obtained using electrospray ionization (ESI/MS) with an ionization potential of 50V and a solvent system consisting of 1% acetic acid in 50/50 methanol/water. Cyclic voltammetry was conducted using a glassy carbon working electrode, platinum counter electrode, and Ag/AgCl reference electrode and carried out in a 0.1 M solution of NBu4ClO4 in acetonitrile. Samples for fluorescence measurements were prepared as 1.00 mM stock solutions in MeOH. A 30.0 μL aliquot of solution was then added to 3.000 mL of the appropriate solvent mixture (a combination of methanol and phosphate buffered saline—PBS) giving a final concentration of 10.0 μM for each complex. Changes in pH were carried out by the addition of small volumes of concentrated hydrochloric acid, acetic acid, or sodium hydroxide. Glucose additions were performed by the addition of a concentrated solution of glucose in PBS to a stirred solution of fluorophore in a cuvette. Relative quantum yield measurements were carried out by measuring the relative intensities of equimolar solutions (10.0 μM) of two fluorophores. Compound 3ay was used as the reference.

[3] = Glucose sensitivity testing of chloro-oxazine-one boronate (COB); settings: glucose zero to 600 mg/dL; 66% MeOH/buffer pH 7.4; 450/560 nm
Procedure: To investigate the conjugated organic heterocyclic ring system compounds as fluorophores, an oxazine-one system was studied. An oxazine-one is described as a neutral (uncharged) precursor to a charged oxazine dye. The relevant values for the COB system for the Rehm-Weller equation are: ΔGPET=−12.1 kcal/mole, E^0(Z^ox)=0.88V, E^0(F^red)=−1.10V, and ΔE00=57.8 kcal/mole. The compound's response to glucose in several solvent systems was characterized. A stock solution of the compound was prepared by dissolving 5.7 mg in 5 mL of methanol. Samples were prepared by adding 30 μL of this stock solution to 3 mL of solvent.
Glucose sensitivity testing was performed on the oxazine-one compound. Samples were prepared as described above and titrated with 30 μL aliquots of concentrated glucose solution (300 mg/mL). […] Following an initial period in which the baseline fluorescence level was determined, four 30 μL aliquots of glucose were introduced into the sample resulting in a final glucose concentration of approximately 1200 mg/dL. In this solvent system, glucose transduction yields a 45% increase in the fluorescence intensity as the glucose concentration is increased from zero to 600 mg/dL.
COB's response was evaluated in several solvent systems. […]
Based on these spectra, excitation and emission wavelengths of 450 nm and 560 nm, respectively, were chosen for subsequent steady-state fluorescence tests. […]

6-chloro-5H-benzo[a]phenoxazin-5-one boronate [COB]
ΔE00, energy of the excited state fluorophore [1]: 57.8 kcal/mol
ΔGPET ([1]; simplified Rehm-Weller equation): -12.1 kcal/mol
E^0(F^red), reduction potential of the fluorophore [2]: −1.10 V
E^0(Z^ox), oxidation potential of the switch [2]: 0.88 V
increase in the fluorescence intensity [3]: 45%
